# Assay results reported in patent EP1733758A1, “Methods for administration of a farnesyl dibenzodiazepinone” (Ecopia Biosciences Inc., priority 2005, dated 2006).
# Where two headings read alike, the source gives them in different places.
# Tests used:
# [1] = Pharmacokinetics and tissue distribution after bolus IV, IP, SC and PO administration in mice; type: in vivo, female Crl: CD1 mice
# Protocol: The compound of formula I was dissolved in ethanol (5%), Polysorbate 80 (15%), PEG 400 (5%) and dextrose (5%) at a final concentration of 6 mg/ml (IV, IP and SC administration). For oral administration, the compound of Formula I was solubilized in Chremophor® EL/ Ethanol (50%:50%) at a final concentration of 6 mg/ml. Prior to dosing, animals (female Crl: CD1 mice; 6 weeks of age, 22-24g) were weighed, randomly selected and assigned to the different treatment groups. The compound of Formula I was administered by the bolus intravenous (IV), bolus subcutaneous (SC), bolus intraperitoneal (IP), or oral (PO) route to the assigned animals. The dosing volume of Formula I was 5 mL per kg body weight. Animals were anesthetized prior to bleeding with 5% isoflurane. Blood was collected into microtainer tubes containing the anticoagulant K2EDTA by cardiac puncture from each of 4 animals per bleeding timepoint (2min, 5 min, 15 min, 30 min, 1 h, 2h, 4h and 8h). Following collection, the samples were centrifuged and the plasma obtained from each sample was recovered and stored frozen (at approximately - 80°C) pending analysis. At the 5 min and 30 min time points, the following organs were harvested from each animal: brain, lungs, skeletal muscle, fat tissue, kidneys, spleen, thymus and liver. Tissues were frozen (at approximately -80°C) pending analysis. Samples were analysed by LC/MS/MS.
# Plasma values of the compound of Formula I falling below the limit of quantitation (LOQ) were set to zero. […] The following pharmacokinetic parameters were calculated: area under the plasma concentration versus time curve from time zero to the last measurable concentration time point (AUCO-t), area under the plasma concentration versus time curve extrapolated to infinity (AUCinf), maximum observed plasma concentration (Cmax), time of maximum plasma concentration (tmax), apparent first-order terminal elimination rate constant (kel), apparent first-order terminal elimination half-life will be calculated as 0.693/kel (t1/2). The systemic clearance (CL) of the compound of Formula I after intravenous administration was calculated using Dose/AUCinf. Pharmacokinetic parameters were calculated using Kinetica™ 4.1.1 (InnaPhase Corporation, Philadelphia, PA).
# [2] = Population pharmacokinetic analysis (NONMEM), mouse; type: in vivo; details: Mouse (IV)
# Protocol: An analysis was performed to derive allometric equations for Formula I pharmacokinetic parameters using Formula I plasma concentration-time data from three species, including mouse, rat, and monkey, and to estimate human pharmacokinetic parameters from those allometric equations.
# Plasma concentrations of Formula I were obtained from mice, rats, and monkeys following intravenous injection or continuous infusion. Formula I pharmacokinetic parameters in mice, rats, and monkeys were estimated using population pharmacokinetic analysis, a function of the software program NONMEM™ (version 5). Typical population pharmacokinetic parameters for Formula I in humans were extrapolated from allometric equations that were derived from pharmacokinetic parameters estimated in the three animal species.
# A two-compartment model with a first-order elimination from the central compartment adequately described Formula I plasma concentration-time profiles following intravenous bolus injection (30 mg/kg) in mice and rats, 7-day continuous infusion in rats (50 to 170 mg/kg/day), and 14-day continuous infusion in monkeys (5 to 30 mg/kg/day).
# [3] = test system: human prostate tumor (PC3) xenografts; experiment: Human PC3 prostate tumor xenograft efficacy; type: in vivo, HRLN male nude mice; details: for %T/C: day 38, P< 0.0001
# Protocol: The anticancer activity of the compound of Formula I was further tested in a human PC3 prostate model in mice. HRLN male nude mice (8 weeks of age) were implanted with 1 mm^3 PC3 tumor fragments subcutaneously (SC) in the right flank. Animals were randomized (ten per group) when tumors reach an average size of 80 - 120 mg and treatment began according to the table below. For these studies, the compound of Formula I was formulated in 5% ethanol, 5% PEG-400, 15% Polysorbate 80, and 75% of water containing 5% dextrose.
# Tumor measurements were taken twice weekly using callipers and were converted to tumor mass (in milligrams) using the formula: with^2 (mm) x length (mm) x 0.52. Body weights were also recorded twice weekly. Statistical analysis was done using the unpaired two-tailed Student's t test.
# [4] = Acute toxicity of 24-hour CIV administration in monkeys; type: in vivo; details: infusion rate 2 mL/kg/hour
# U-87MG cell line = experiment: In vitro activity in the U-87MG cell line; type: cell-based; details: Homo sapiens
# [5] = Toxicity of 14-day continuous intravenous infusion in monkeys; type: in vivo
# Protocol: Cynomolgus monkeys received continuous IV infusion over 14 days of Formula I at 5 mg/kg/day, 15 mg/kg/day, or 30 mg/kg/day. The drug was infused intravenously (24 hours/day) into the femoral vein at a dose rate of 2 ml/kg/hour for 14 consecutive days. Blood samples were removed from each monkey on Days 1, 2, 6, 10, and 15 of the treatment period. Monkeys were bled by venipuncture and samples were collected into tubes containing K2EDTA. On Day 1, samples were collected at 2, 6, and 12 hours after initiation of treatment. Additional samples were collected at 30 hours after the start of infusion (Day 2). On Days 6 and 10, samples were collected at approximately 6 hours after the bag changes. At the end of the 14 days of infusion, on Day 15, samples were collected at 1 hour prior to cessation of dose administration, and at 5 min, 30 min, 1 h, 2 h, 4 h, 8 h, and 24 h following cessation of dose administration.
# [6] = typical population PK parameter
smiles,measurement,setting,value
"CC(C)=CCC/C(C)=C/CC/C(C)=C/CN1C(=O)c2cccc(O)c2Nc2c(O)cc(O)cc21 [Formula I, 10-farnesyl-4,6,8-trihydroxy-dibenzodiazepin-11-one]",plasma concentration,"[1]; 30 mg/kg bolus IV, initial",425000 nM
same,peak concentration,"[1]; IP bolus, plasma",7.8 µM
same,time peak concentration reached,"[1]; IP bolus, plasma",15 min
same,tissue distribution,"[1]; IV and IP bolus 30 mg/kg, 30 min",well distributed
same,tissue levels compared with IP,"[1]; SC bolus 30 mg/kg, 30 min",significantly lower
same,peak concentration,"[1]; SC bolus, plasma",2.3 µM
same,time peak concentration reached,"[1]; SC bolus, plasma",60 min
same,bioavailability,"[1]; female, Crl: CD1, mouse, plasma, PO 30 mg/kg compared to IV bolus administration, read-out: orally bioavailable",5 to 8%
same,half-life,"[1]; female, Crl:CD1, mouse, bolus IV 30 mg/kg, plasma, read-out: t1/2 α",4.7 min
same,concentration at 8 h,"[1]; female, Crl:CD1, mouse, plasma, 30 mg/kg bolus IV, by 8 hours, read-out: plasma concentration",~100 nM
same,concentration at 4 h,"[1]; female, Crl:CD1, mouse, plasma, 30 mg/kg bolus IV, four hours after administration",200 nM
same,concentration at 1 h,"[1]; female, Crl:CD1, mouse, plasma, 30 mg/kg bolus IV, within one hour",1300 nM
same,concentration at 8 h,"[1]; female, Crl:CD1, mouse, plasma, 30 mg/kg, IP bolus, read-out: plasma concentration remained for up to 8 hours",~950 nM
same,concentration at 8 h,"[1]; female, Crl:CD1, mouse, plasma, 30 mg/kg, SC bolus, read-out: plasma concentration remained for up to 8 hours",~1800 nM
same,time plasma concentration is maintained at therapeutically relevant levels,[1]; intraperitoneal and subcutaneous 30 mg/kg,over 8 hours
same,Q,[2]; WT 0.022 Kg,0.001 L/h
same,V1,[2]; WT 0.022 Kg,0.004 L
same,V2,[2]; WT 0.022 Kg,0.005 L
same,Ke,[2]; [6],8.466 h⁻¹
same,Q,[2]; [6],1.09 mL/min/kg
same,V1,[2]; [6],0.176 L/kg
same,V2,[2]; [6],0.225 L/kg
same,%T/C,"[3]; bolus SC 30 mg/kg days 1 to 5, 8 to 12 and 15 to 19",25.5%
same,%T/C,[3]; bolus SC 50 mg/kg every three days x 7,14.6%
same,antitumor activity,"[3]; bolus intravenous treatment (100 mg/kg, 5/2/5/2/5)",did not result in activity
same,acute toxicity / tolerability,[4]; 35 mg/kg,well tolerated
same,acute toxicity / tolerability,[4]; 70 mg/kg,well tolerated
same,IC50,U-87MG cell line,10.9 µM
same,compound associated toxicity,[5],no severe compound associated toxicity was observed
same,"degenerative changes in any organs, including the infusion site",[5],No degenerative changes
same,"effect on body weight, ocular condition, electrocardiographic activity and other parameters assessed",[5],no effect
same,"histological observations, reflected clearance of the vehicle used",[5],Diffuse vacuolization of hepatocytes and accumulation of foamy histiocytes (macrophages) in the spleen
same,side effects (reversible),[5],inappetance and a moderate degree of regenerative anemia
